Data as given in ChEMBL document CHEMBL1122446.

Legend:
[1] = target: T1, Dihydrofolate reductase (Homo sapiens) (UniProt P00374)
T1 sequence (whole entry): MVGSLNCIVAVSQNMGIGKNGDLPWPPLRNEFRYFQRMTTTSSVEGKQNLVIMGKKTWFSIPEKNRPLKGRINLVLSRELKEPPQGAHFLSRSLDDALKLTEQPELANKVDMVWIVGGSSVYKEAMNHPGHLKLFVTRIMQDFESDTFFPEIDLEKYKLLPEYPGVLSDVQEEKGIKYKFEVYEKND

[2] = target: Dihydrofolate reductase (Lactobacillus casei) (UniProt P00381); conditions: Lacticaseibacillus casei
[3] = target: T2, Dihydrofolate reductase (Gallus gallus) (UniProt P00378)
T2 sequence (whole entry): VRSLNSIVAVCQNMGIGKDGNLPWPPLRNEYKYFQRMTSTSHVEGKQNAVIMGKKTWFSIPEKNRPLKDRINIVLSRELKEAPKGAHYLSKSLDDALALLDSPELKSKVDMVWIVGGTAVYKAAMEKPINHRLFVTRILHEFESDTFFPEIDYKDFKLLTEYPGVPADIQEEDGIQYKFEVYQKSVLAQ

Dihydrofolate reductase (Lactobacillus casei), sequence (P00381 whole entry): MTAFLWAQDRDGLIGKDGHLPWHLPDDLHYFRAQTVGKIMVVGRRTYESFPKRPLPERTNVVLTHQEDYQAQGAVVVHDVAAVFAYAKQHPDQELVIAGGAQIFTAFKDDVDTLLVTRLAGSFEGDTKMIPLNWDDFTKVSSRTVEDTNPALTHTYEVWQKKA

CN(C)c1cccc2c(S(=O)(=O)NCCCCC(NC(=O)c3ccc(N(C)Cc4cnc5nc(N)nc(N)c5n4)cc3)C(=O)O)cccc12 (stereo unspecified)
I / E100 [1]: 2.9
I / E100 [2]: 1.9
I / E100 [3]: 3.5

CN(Cc1cnc2nc(N)nc(N)c2n1)c1ccc(C(=O)NC(CCCCN)C(=O)O)cc1 (stereo unspecified)
I / E100 [1]: 1
I / E100 [2]: 1
I / E100 [3]: 1.4
